From PMC7523345 (Investigational new drugs, 2018)

Experiments:
advanced solid tumours = assay: Tumour response by RECIST 1.1; type: in vivo, human
[1] = biological target: Notch receptors (Notch1 to 4); settings: all 4 mammalian Notch receptors (Notch1 to 4); nonclinical; cited from earlier work
Hes1 = Hes1 expression in peripheral blood; type: in vivo, human; settings: after 2 weeks of dosing at 1.2 mg QD and 1.5 mg QD
clinical = assay: clinical; set-up: species or system human; settings: in vivo

Cc1cccc2c1NC(=O)[C@@H](NC(=O)[C@H](CCC(F)(F)F)[C@H](CCC(F)(F)F)C(N)=O)N=C2c1cccc(F)c1 [BMS-986115]
Subjects with progressive disease as best tumour response (advanced solid tumours; 36 treated subjects): 58% | Subjects with stable disease (SD) as best tumour response (advanced solid tumours; 36 treated subjects): 31% | Subjects with SD for more than 6 months (advanced solid tumours; 36 treated subjects, both arms): 5 subjects | Patients with stable disease for more than 6 months (advanced solid tumours; Arm A): Three | Patients with stable disease for more than 6 months (advanced solid tumours; Arm B): 2 patients | Patients with prolonged SD of >6 months with disease shrinkage (advanced solid tumours; dose levels that are pharmacodynamically active): 3 patients | maximum tumor shrinkage (advanced solid tumours; patient with clear cell renal cell carcinoma, 1.2 mg QD, after ~5.5 months of treatment): 23.9% | maximum disease shrinkage (advanced solid tumours; patient with fibromatosis, 1.5 mg QD, after ~9 months of treatment): 16.5% | maximum tumor shrinkage (advanced solid tumours; patient with retroperitoneal liposarcoma, 2 mg QD, after ~7.5 months of treatment): 13.8% | median inhibitory concentrations (IC50s) [1]: low nanomolar | Peak inhibition of geometric mean relative expression of Hes1 (Hes1): > 80% | half-life (clinical; human): 17.2 to 28 h | median accumulation ratio (AUCtau ratio of Day 15/Day 1) (clinical; human, 0.3 mg): 2.64 | median accumulation ratio (AUCtau ratio of Day 15/Day 1) (clinical; human, 0.6 mg): 3.9 | median accumulation ratio (AUCtau ratio of Day 15/Day 1) (clinical; human, 1.2 mg): 3.66 | median accumulation ratio (AUCtau ratio of Day 15/Day 1) (clinical; human, 1.5 mg): 2.33 | Accumulation ratio (AUCtau ratio of Day 16/Day 1) (clinical; human, 2 mg): 2.47 | median accumulation ratio (AUCtau ratio of Day 15/Day 1) (clinical; human, 2 mg): 2.19 | Accumulation ratio (AUCtau ratio of Day 16/Day 1) (clinical; human, 4 mg): 3.01 | Accumulation ratio (AUCtau ratio of Day 16/Day 1) (clinical; human, 8 mg): 2.77 | Exposure, dose relation (clinical): dose related increase
